Measurements: US12344618B2, “Heterotricyclic derivative compound and use of same” (HANMI PHARMACEUTICAL CO., LTD., priority 2019, dated 2025)

Assays:
[1] = test system: KARPAS-422 (EZH2 Y641N mutation); assay: Cell growth inhibition test, KARPAS-422; type: cell-based; settings: Homo sapiens, KARPAS-422, 168 h, KARPAS-422, culture time 7 days; read-out: Cell growth inhibitory activity (GI50, nM) KARPAS-422 (EZH2 Y641N mutation)
Procedure: Each type of the cultured cells was seeded in 6-well plates or 48-96 well plates, and subculture or medium replacement was performed every 3 to 4 days. Next, the cells were subcultured for a total of 7 to 14 days, and then seeded in 96-well plates. 3 to 5 days before the measurement of the effect, the cells were seeded in 96-well plates, and then the absorbance (Tz) on the day of seeding was measured. The absorbance after the reaction was measured by the plate reader device Synergy NeoAlpha (Biotek) using Cell-Titer-Glo Cell Viability Assay (Promega, G7573) according to the attached manual. Based on the absorbance (Tz) measured on the seeding day and the absorbance of each of the DMSO-treated group (C) and the sample-added group (Ti) measured on the day of effect determination, the percentage of cell proliferation inhibition was calculated according to the following Equation 1. [(Ti−Tz)/(C−Tz)]×100 for concentrations for which Ti≥Tz […] for concentrations for which Ti<Tz. [Equation 1]

EZH2 = EZH2 (Homo sapiens, UniProt Q15910); assay: Inhibitory activity against EZH2 methyltransferase (radiometric scintillation proximity assay); settings: Enzyme inhibitory activity (IC50, nM) EZH2, 2.3 nmol/L enzyme, 90 minutes, room temperature;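 note: Read-out is substrate peptide methylation, captured on streptavidin-coated SPA beads and counted by scintillation, with the reaction run in Tris-HCl buffer at pH 8.0 containing 1% DMSO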
Sequence of EZH2 (Q15910 whole entry): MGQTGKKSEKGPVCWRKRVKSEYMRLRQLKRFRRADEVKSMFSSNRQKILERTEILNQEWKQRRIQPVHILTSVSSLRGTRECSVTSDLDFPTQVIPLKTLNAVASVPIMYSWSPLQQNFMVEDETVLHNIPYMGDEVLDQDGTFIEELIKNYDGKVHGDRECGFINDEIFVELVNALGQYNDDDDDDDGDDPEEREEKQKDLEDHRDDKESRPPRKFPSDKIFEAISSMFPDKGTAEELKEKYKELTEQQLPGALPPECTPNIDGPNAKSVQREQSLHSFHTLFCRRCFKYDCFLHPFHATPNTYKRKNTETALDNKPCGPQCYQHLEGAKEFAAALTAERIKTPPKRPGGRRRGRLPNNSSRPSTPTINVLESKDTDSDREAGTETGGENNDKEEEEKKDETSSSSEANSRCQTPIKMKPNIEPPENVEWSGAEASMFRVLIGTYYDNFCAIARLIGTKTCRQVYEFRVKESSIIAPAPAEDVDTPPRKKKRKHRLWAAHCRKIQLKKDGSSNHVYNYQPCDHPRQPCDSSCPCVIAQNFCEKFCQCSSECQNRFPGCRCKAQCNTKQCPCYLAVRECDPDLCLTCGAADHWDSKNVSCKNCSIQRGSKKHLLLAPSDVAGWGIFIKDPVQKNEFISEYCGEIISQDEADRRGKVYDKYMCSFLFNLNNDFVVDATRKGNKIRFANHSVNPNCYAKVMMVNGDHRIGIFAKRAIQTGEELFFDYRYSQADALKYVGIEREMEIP
Sequence of EZH2 (O75530 whole entry partner): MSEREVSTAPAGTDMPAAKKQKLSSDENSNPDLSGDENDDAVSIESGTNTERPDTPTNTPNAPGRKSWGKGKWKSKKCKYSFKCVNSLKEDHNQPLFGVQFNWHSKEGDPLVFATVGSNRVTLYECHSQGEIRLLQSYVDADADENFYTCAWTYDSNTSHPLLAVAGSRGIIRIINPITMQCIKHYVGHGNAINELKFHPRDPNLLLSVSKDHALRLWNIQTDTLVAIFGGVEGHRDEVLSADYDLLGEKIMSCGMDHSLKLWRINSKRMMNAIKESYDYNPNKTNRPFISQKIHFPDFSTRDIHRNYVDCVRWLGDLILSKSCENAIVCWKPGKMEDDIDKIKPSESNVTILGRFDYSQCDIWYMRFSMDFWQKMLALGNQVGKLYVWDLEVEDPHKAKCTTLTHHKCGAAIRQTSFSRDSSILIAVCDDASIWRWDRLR
Sequence of EZH2 (Q15022 whole entry partner): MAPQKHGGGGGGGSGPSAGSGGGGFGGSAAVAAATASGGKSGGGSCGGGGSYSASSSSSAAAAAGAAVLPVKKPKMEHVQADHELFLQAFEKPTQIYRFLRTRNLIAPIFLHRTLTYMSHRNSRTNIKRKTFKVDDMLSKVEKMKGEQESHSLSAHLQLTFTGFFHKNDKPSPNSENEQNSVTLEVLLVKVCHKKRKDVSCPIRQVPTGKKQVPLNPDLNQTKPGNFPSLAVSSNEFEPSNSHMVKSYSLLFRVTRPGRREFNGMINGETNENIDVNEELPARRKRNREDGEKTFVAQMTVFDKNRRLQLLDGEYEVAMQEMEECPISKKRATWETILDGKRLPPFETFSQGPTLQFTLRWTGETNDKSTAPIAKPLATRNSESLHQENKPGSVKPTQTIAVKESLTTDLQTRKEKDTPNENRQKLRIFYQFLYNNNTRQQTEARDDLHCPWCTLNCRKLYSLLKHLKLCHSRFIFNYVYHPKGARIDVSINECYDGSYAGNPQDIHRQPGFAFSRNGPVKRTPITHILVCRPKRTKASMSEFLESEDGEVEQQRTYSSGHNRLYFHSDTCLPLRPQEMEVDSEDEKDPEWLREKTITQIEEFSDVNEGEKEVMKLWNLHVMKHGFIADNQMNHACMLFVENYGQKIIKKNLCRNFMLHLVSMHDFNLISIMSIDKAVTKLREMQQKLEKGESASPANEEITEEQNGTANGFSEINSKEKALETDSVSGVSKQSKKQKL
Sequence of EZH2 (Q09028 whole entry partner): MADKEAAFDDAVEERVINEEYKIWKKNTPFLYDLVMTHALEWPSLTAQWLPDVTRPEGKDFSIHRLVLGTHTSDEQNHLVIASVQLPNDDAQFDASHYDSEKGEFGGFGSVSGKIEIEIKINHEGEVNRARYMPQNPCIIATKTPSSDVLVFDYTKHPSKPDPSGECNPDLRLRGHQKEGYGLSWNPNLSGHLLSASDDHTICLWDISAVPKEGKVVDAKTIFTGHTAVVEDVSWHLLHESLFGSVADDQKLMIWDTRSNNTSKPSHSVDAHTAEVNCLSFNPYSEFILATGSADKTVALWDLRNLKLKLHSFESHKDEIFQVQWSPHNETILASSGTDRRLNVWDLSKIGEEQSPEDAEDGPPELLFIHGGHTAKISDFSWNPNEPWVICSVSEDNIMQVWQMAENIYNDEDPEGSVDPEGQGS
Sequence of EZH2 (Q6ZN18 whole entry partner): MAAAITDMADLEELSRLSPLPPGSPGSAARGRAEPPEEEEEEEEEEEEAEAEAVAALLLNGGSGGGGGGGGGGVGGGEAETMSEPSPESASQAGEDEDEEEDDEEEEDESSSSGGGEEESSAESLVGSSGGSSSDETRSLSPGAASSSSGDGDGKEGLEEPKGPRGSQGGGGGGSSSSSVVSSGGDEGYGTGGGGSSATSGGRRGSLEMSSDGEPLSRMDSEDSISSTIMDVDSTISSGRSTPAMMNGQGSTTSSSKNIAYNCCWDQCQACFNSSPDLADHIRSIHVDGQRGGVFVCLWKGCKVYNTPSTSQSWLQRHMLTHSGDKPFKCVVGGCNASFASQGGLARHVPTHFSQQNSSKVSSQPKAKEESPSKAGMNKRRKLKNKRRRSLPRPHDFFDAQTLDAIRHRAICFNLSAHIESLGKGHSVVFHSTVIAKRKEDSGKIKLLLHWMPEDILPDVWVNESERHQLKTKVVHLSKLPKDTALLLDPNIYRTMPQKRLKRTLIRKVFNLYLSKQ
Procedure: (§1) The inhibitory activities of the synthetic compounds against EZH1 or EZH2 methyltransferase were measured. The experiment was conducted by Reaction Biology Corp., and the activity of EZH1 or EZH2 was measured using a radiometric scintillation proximity assay. […] The reaction buffer consisted of 50 mmol/L Tris-HCl (pH 8.0), 50 mmol/L NaCl, 1 mmol/L EDTA, 1 mmoL/L DTT, 1 mmol/L PMSF, and 1% DMSO. Trichloroacetic acid was added to terminate the reaction, and PVT streptavidin-coated SPA beads were added to each reaction solution, followed by further reaction at room temperature for 1 hour again. The methylation value of the substrate peptide was measured using the TopCount NXT plate reader.

EZH1 = target: T1, EZH1 (Homo sapiens, UniProt Q92800); assay: Inhibitory activity against EZH1 methyltransferase (radiometric scintillation proximity assay); type: biochemical; settings: 2.3 nmol/L enzyme, 90 minutes, room temperature;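 note: Read-out is methylation of a substrate peptide, captured on streptavidin-coated SPA beads and counted by scintillation, in Tris-HCl buffer at pH 8.0 with 1% DMSO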
T1 construct: purchased Reaction Biology Corp. (contract assay)
T1 sequence (Q92800 whole entry): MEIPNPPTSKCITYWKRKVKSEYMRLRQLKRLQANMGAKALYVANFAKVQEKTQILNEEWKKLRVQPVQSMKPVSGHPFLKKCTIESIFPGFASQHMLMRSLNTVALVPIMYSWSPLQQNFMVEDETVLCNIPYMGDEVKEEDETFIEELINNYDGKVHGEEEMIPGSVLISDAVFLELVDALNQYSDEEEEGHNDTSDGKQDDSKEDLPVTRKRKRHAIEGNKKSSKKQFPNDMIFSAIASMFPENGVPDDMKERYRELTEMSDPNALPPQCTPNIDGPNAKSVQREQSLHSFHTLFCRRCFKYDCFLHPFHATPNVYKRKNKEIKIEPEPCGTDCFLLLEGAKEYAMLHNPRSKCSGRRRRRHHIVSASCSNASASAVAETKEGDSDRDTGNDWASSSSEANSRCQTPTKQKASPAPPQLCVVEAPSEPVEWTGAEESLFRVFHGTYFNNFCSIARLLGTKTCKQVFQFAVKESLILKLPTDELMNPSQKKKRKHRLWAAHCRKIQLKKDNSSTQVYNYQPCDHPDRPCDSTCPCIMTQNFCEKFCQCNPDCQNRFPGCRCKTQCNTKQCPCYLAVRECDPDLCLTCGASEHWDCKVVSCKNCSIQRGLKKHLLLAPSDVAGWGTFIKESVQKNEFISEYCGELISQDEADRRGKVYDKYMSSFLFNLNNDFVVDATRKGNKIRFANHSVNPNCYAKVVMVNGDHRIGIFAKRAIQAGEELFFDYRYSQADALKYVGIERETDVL
T1 sequence (O75530 whole entry partner): as the sequence (O75530 whole entry partner) above
T1 sequence (Q15022 whole entry partner): as the sequence (Q15022 whole entry partner) above
T1 sequence (Q09028 whole entry partner): as the sequence (Q09028 whole entry partner) above
T1 sequence (Q6ZN18 whole entry partner): as the sequence (Q6ZN18 whole entry partner) above
Procedure: as §1

Row | Compound | GI50 [1] [nM] | IC50 (EZH2) [nM] | IC50 (EZH1) [nM]
1 | Cc1cc(C)c(CN2CCc3c(Cl)c4c(c(C)c3C2=O)OC(C)(C2CCN(C)CC2)O4)c(=O)[nH]1 (centres unmarked) [Compound 29, 9-chloro-6-((4,6-dimethyl-2-oxo-1,2-dihydropyridin-3-yl)methyl)-2,4-dimethyl-2-(1-methylpiperidin-4-yl)-7,8-dihydro-[1,3]dioxolo[4,5-g]isoquinolin-5(6H)-one] | 51 | 5 | 136
2 | Cc1cc(C)c(CN2CCc3c(C)c4c(c(C)c3C2=O)OC(C)([C@H]2CC[C@H](N)CC2)O4)c(=O)[nH]1 (stereo partly drawn) [Compound 38, 2-(trans-4-aminocyclohexyl)-6-((4,6-dimethyl-2-oxo-1,2-dihydropyridin-3-yl)methyl)-2,4,9-trimethyl-7,8-dihydro-[1,3]dioxolo[4,5-g]isoquinolin-5(6H)-one] | – | 4.4 | 54
3 | Cc1cc(C)c(CN2CCc3cc4c(c(C)c3C2=O)OC(C)([C@H]2CC[C@H](N(C)C)CC2)O4)c(=O)[nH]1 (stereo partly drawn) [Compound 1, 6-((4,6-dimethyl-2-oxo-1,2-dihydropyridin-3-yl)methyl)-2(trans-4-(dimethylamino)cyclohexyl)-2,4-dimethyl-7,8-dihydro-[1,3]dioxolo[4,5-g]isoquinolin-5(6H)-one] | – | 14.3 | 97.6
4 | Cc1cc(C)c(CN2CCc3c(Cl)c4c(c(C)c3C2=O)OC(C)(C2CCOCC2)O4)c(=O)[nH]1 (centres unmarked) [Compound 24, 9-chloro-6-((4,6-dimethyl-2-oxo-1,2-dihydropyridin-3-yl)methyl)-2,4-dimethyl-2-(tetrahydro-2H-pyran-4-yl)-7,8-dihydro-[1,3]dioxolo[4,5-g]isoquinolin-5(6H)-one] | 62 | 3 | 34
5 | Cc1cc(C)c(CN2CCc3c(Cl)c4c(c(C)c3C2=O)OC(C)(C[C@H]2CC[C@H](N(C)C)CC2)O4)c(=O)[nH]1 (stereo partly drawn) [Compound 21, 9-chloro-6-((4,6-dimethyl-2-oxo-1,2-dihydropyridin-3-yl)methyl)-2-((trans-4-(dimethylamino)cyclohexyl)methyl)-2,4-dimethyl-7,8-dihydro-[1,3]dioxolo[4,5-g]isoquinolin-5(6H)-one] | 75 | 7.2 | 137
6 | Cc1cc(C)c(CN2CCc3c(c(C)c4c(c3C3CC3)OC(C)([C@H]3CC[C@H](N(C)C)CC3)O4)C2=O)c(=O)[nH]1 (stereo partly drawn) [Compound 54, 9-cyclopropyl-6-((4,6-dimethyl-2-oxo-1,2-dihydropyridin-3-yl)methyl)-2-(trans-4-(dimethylamino)cyclohexyl)-2,4-dimethyl-7,8-dihydro-[1,3]dioxolo[4,5-g]isoquinolin-5(6H)-one] | 19 | 6.4 | 41
7 | Cc1cc(C)c(CN2CCc3c(C)c4c(c(C)c3C2=O)OC(C)(C2CCCCC2)O4)c(=O)[nH]1 (centres unmarked) [Compound 44, 2-cyclohexyl-6-((4,6-dimethyl-2-oxo-1,2-dihydropyridin-3-yl)methyl)-2,4,9-trimethyl-7,8-dihydro-[1,3]dioxolo[4,5-g]isoquinolin-5(6H)-one] | – | 0.4 | 34
8 | Cc1cc(C)c(CN2CCc3c(c(C)c4c(c3-c3ccc(CN5CCOCC5)cc3)OC(C)([C@H]3CC[C@H](N(C)C)CC3)O4)C2=O)c(=O)[nH]1 (stereo partly drawn) [Compound 55, 6-((4,6-dimethyl-2-oxo-1,2-dihydropyridin-3-yl)methyl)-2-(trans-4-(dimethylamino)cyclohexyl)-2,4-dimethyl-9-(4-(morpholinomethyl)phenyl)-7,8-dihydro-[1,3]dioxolo[4,5-g]isoquinolin-5(6H)-one] | – | 5.6 | 26
9 | Cc1cc(C)c(CN2CCc3c(c(C)c4c(c3-c3ccco3)OC(C)([C@H]3CC[C@H](N(C)C)CC3)O4)C2=O)c(=O)[nH]1 (stereo partly drawn) [Compound 64, 6-((4,6-dimethyl-2-oxo-1,2-dihydropyridin-3-yl)methyl)-2-(trans-4-(dimethylamino)cyclohexyl)-9-(furan-2-yl)-2,4-dimethyl-7,8-dihydro-[1,3]dioxolo[4,5-g]isoquinolin-5(6H)-one] | 5 | – | –
10 | CCN[C@H]1CC[C@H](C2(C)Oc3c(C)c4c(c(C)c3O2)C(=O)N(Cc2c(OC)cc(C)[nH]c2=O)CC4)CC1 (stereo partly drawn) [Compound 45, 2-(trans-4-(ethylamino)cyclohexyl)-6-((4-methoxy-6-methyl-2-oxo-1,2-dihydropyridin-3-yl)methyl)-2,4,9-trimethyl-7,8-dihydro-[1,3]dioxolo[4,5-g]isoquinolin-5(6H)-one] | – | 6.2 | 18
11 | CCN(CC)[C@H]1CC[C@H](C2(C)Oc3c(C)c4c(c(C)c3O2)C(=O)N(Cc2c(OC)cc(C)[nH]c2=O)CC4)CC1 (stereo partly drawn) [Compound 46, 2-(trans-4-(diethylamino)cyclohexyl)-6-((4-methoxy-6-methyl-2-oxo-1,2-dihydropyridin-3-yl)methyl)-2,4,9-trimethyl-7,8-dihydro-[1,3]dioxolo[4,5-g]isoquinolin-5(6H)-one] | – | 9.7 | 16

The next lines start with the values.

Row | GI50 [1] [nM] | IC50 (EZH2) [nM] | IC50 (EZH1) [nM] | Compound
12 | – | 7 | 20 | CCN(C)[C@H]1CC[C@H](C2(C)Oc3c(C)c4c(c(C)c3O2)C(=O)N(Cc2c(OC)cc(C)[nH]c2=O)CC4)CC1 (some centres unmarked) [Compound 47]
13 | 99 | 6.2 | 85 | Cc1cc(C)c(CN2CCc3c(Cl)c4c(c(C)c3C2=O)OC(C)(CCCCN(C)C)O4)c(=O)[nH]1 (centres unmarked) [Compound 26, 9-chloro-6-((4,6-dimethyl-2-oxo-1,2-dihydropyridin-3-yl)methyl)-2-(4-(dimethylamino)butyl)-2,4-dimethyl-7,8-dihydro-[1,3]dioxolo[4,5-g]isoquinolin-5(6H)-one]
14 | 14 | 3.2 | 55 | Cc1cc(C)c(CN2CCc3c(Cl)c4c(c(C)c3C2=O)OC(C)(C2CCNCC2)O4)c(=O)[nH]1 (centres unmarked) [Compound 28, 9-chloro-6-((4,6-dimethyl-2-oxo-1,2-dihydropyridin-3-yl)methyl)-2,4-dimethyl-2-(piperidin-4-yl)-7,8-dihydro-[1,3]dioxolo[4,5-g]isoquinolin-5(6H)-one]
15 | 440 | 4.4 | – | CC[C@H](O)C(=O)N[C@H]1CC[C@H](C2(C)Oc3c(C)c4c(c(Cl)c3O2)CCN(Cc2c(C)cc(C)[nH]c2=O)C4=O)CC1 (some centres unmarked) [Compound 19]
16 | > 1000 | 4.4 | – | Cc1cc(C)c(CN2CCc3c(Cl)c4c(c(C)c3C2=O)OC(C)(C2CCCC2)O4)c(=O)[nH]1 (centres unmarked) [Compound 23, 9-chloro-2-cyclopentyl-6-((4,6-dimethyl-2-oxo-1,2-dihydropyridin-3-yl)methyl)-2,4-dimethyl-7,8-dihydro-[1,3]dioxolo[4,5-g]isoquinolin-5(6H)-one]
17 | – | 11 | 166 | Cc1cc(C)c(CN2CCc3c(Cl)c4c(c(C)c3C2=O)OC(C)(c2ccc(N(C)C)cc2)O4)c(=O)[nH]1 (centres unmarked) [Compound 25, 9-chloro-6-((4,6-dimethyl-2-oxo-1,2-dihydropyridin-3-yl)methyl)-2-(4-(dimethylamino)phenyl)-2,4-dimethyl-7,8-dihydro-[1,3]dioxolo[4,5-g]isoquinolin-5(6H)-one]
18 | – | 3.9 | 310 | Cc1cc(C)c(CN2CCc3c(Cl)c4c(c(C)c3C2=O)OC(C)(c2c(C)noc2C)O4)c(=O)[nH]1 (centres unmarked) [Compound 27]
19 | 13 | 3.2 | – | Cc1cc(C)c(CN2CCc3c(Cl)c4c(c(C)c3C2=O)OC(C)([C@H]2CC[C@H](N)CC2)O4)c(=O)[nH]1 (stereo partly drawn) [Compound 8, 2-(trans-4-aminocyclohexyl)-9-chloro-6-((4,6-dimethyl-2-oxo-1,2-dihydropyridin-3-yl)methyl)-2,4-dimethyl-7,8-dihydro-[1,3]dioxolo[4,5-g]isoquinolin-5(6H)-one]
20 | – | 7.9 | 371 | Cc1cc(C)c(CN2CCc3cc4c(cc3C2=O)OC(C)([C@H]2CC[C@H](N(C)C)CC2)O4)c(=O)[nH]1 (stereo partly drawn) [Compound 2, 6-((4,6-dimethyl-2-oxo-1,2-dihydropyridin-3-yl)methyl)-2(trans-4-(dimethylamino)cyclohexyl)-2-methyl-7,8-dihydro-[1,3]dioxolo[4,5-g]isoquinolin-5(6H)-one]
21 | 4.8 | – | – | C=C(C)c1c2c(c(C)c3c1OC(C)([C@H]1CC[C@H](N(C)C)CC1)O3)C(=O)N(Cc1c(C)cc(C)[nH]c1=O)CC2 (stereo partly drawn) [Compound 61, 6-((4,6-dimethyl-2-oxo-1,2-dihydropyridin-3-yl)methyl)-2-(trans-4-(dimethylamino)cyclohexyl)-2,4-dimethyl-9-(prop-1-en-2-yl)-7,8-dihydro-[1,3]dioxolo[4,5-g]isoquinolin-5(6H)-one]
22 | 5.1 | – | – | Cc1cc(C)c(CN2CCc3c(c(C)c4c(c3-c3cnn(C)c3)OC(C)([C@H]3CC[C@H](N(C)C)CC3)O4)C2=O)c(=O)[nH]1 (stereo partly drawn) [Compound 68, 6-((4,6-dimethyl-2-oxo-1,2-dihydropyridin-3-yl)methyl)-2-(trans-4-(dimethylamino)cyclohexyl)-2,4-dimethyl-9-(1-methyl-1H-pyrazol-4-yl)-7,8-dihydro-[1,3]dioxolo[4,5-g]isoquinolin-5 (6H)-one]
